Entries after “also recorded” stand apart in the source; their conditions may differ. Counter-ions that a name gives are not always drawn.
Tests used:
Type in all cases: in vivo
[1] = test system: C57B16/J mice; assay: Elevated Plus Maze (EPM); conditions: for Closed Arm Entries / Total Entries / Open Arm Time / Proportion Open Arm Entries: vs vehicle
Excerpt: (§1) Young adult male C57B16/J mice from Jackson Laboratory, Bar Harbor, Me. were used in the Elevated Plus Maze; 129 svev mice from Taconic, Germantown, N.Y. were used in the Stress-induced Hyperthermia, Open Field, and the Tail Suspension tests, and DBA/2J mice from Jackson Laboratory, Bar Harbor, Me. were used in the Forced Swim test. All mice were received at the age of 6 weeks and were assigned unique identification numbers. Animals were housed 4 per cage in polycarbonate cages with filter tops, cagemate identification maintained by tail marks. Animals were acclimated for 7 days and given food and water ad libitum. Mice were examined prior to initiation of the study at 8 weeks of age to assure adequate health and suitability. During the course of the study, 12-hour light/12-hour dark cycles were maintained with the light on at 7:00 a.m. The room temperature was maintained between 20 and 23° C. with a relative humidity maintained between 30% and 70%. Chow and water were provided ad libitum.
(§2) In each test, animals were randomly assigned across treatment groups and balanced by cage number. Ten animals were used in each treatment group. Mice for the Open Field and Stress-induced hyperthermia studies were handled once daily for 2 consecutive days prior to the testing. Mice assigned to the Elevated plus maze experiment were not handled to increase the stress level at the time of the testing.
(§3) All compounds were dissolved in sterile injectable water, which served as the vehicle control. All solutions were prepared on the day of the experiments. […] In all tests except for the tail suspension (TS) test, drugs were administered acutely; in the TS test, Compound A was administered once daily for 3 days (test day inclusive) prior to testing. Thirty minutes pretreatment time was used in all tests except for SIH in which case compounds were given to the animals one hr before the test.
The elevated plus maze is a test commonly used to assess anxiety in rodents. The maze consists of two closed arms (l×w×h: 15 cm×6 cm×30 cm) and two open arms (6 cm w×30 cm l) forming a cross, with a square center platform (6×6 cm). Rodents naturally fear open spaces and tend to spend more time in the closed arms. Anxiolytics will attenuate this fear of open spaces and will increase the number of time spent in open arms. All visible surfaces are made of a black acrylic. Each arm of the maze is placed on a support column 50 cm above the floor. The light intensity was ˜100 lux above the open arms and ˜70 lux above the closed arms. Animals were brought to the experimental room at least 1 hr before the test in the home cage (food and water available). Mice were placed in the center of the elevated plus maze facing an open arm, tested once, one at a time for a 5 min test. The time in the open/closed arms and the number of entries in the open/closed arms were recorded via video camera and used as a measure of anxiety. Mice were returned to the home cage after testing and then to the colony room.
(§4) All data were analyzed by comparing the groups treated with the test substance to the vehicle control or reference treated groups. Statistical analysis was performed by ANOVA followed by Fisher's post-hoc test where appropriate. […] Data are represented as the means and standard error to the mean (s.e.m).

[2] = test system: 129 svev mice; assay: Stress-Induced Hyperthermia (SIH); conditions: 1 hr before test
Excerpt: as §1, §2, §3
Mice have a natural hyperthermic response to stress, which has been proposed as a measure of stress-induced anxiety (Olivier, Zethof, Ronken & van der Heyden, European Journal of Pharmacology 342(2–3): 177–82, 1998). Anxiolytics are known to decrease this hyperthermic response to stress. This test involves two measures of rectal temperature repeated in the same animal within a 10 min period. On the day prior to testing, animals were brought to the experimental room 1 hr prior to scheduled lights out and singly housed overnight with food and water ad libitum. On the morning of the experiment, animals were first injected with treatment compound or vehicle. One hr post treatment, the animal was removed from the holding cage and held in a supine position and had rectal temperature measured by using a rectal probe attached to a PhysiTemp thermometer (Fisher Scientific). For each animal tested, the rectal probe was cleaned with an alcohol pad and lubricated with sterile K-Y jelly and slowly inserted into the animal's rectum at a length of approximately 3–5 mm. The probe remained within the animal's rectum for approximately 5 sec or until body temperature reached stability, and the baseline rectal temperature (T1) was recorded. The animal was immediately placed back to the holding cage and after a 10-min interval a second rectal temperature (T2) was taken using the same procedure as T1. The animal was then returned to the home cage and at the completion of the experiment returned to the colony room.
as §4

[3] = test system: 129 svev mice; assay: Open Field (OF), general motor activity; conditions: 40 min session
Excerpt: as §1, §2, §3
The open field activity monitor system (Med Associates, Inc.) measured general motor activity. The test was performed under normal lighting conditions (400 lux). Mice were brought into the experimental room and allowed at least 1 hr of acclimation. Thirty min after treatment, each mouse was placed into the testing enclosure (l×w×h: 27 cm×27 cm×20 cm) with an infrared beam array that automatically monitors the animal's activity. Eight animals of balanced treatment were tested at one time. The test session lasted 40 min and animals were returned to the home cages at the end of the session. The critical measures of this test includes locomotion (total distance traveled), rearing (vertical activity), number of center entries and percent time spent in the center area of the OF arena.
as §4

[4] = test system: Coloboma mice; assay: Open Field, hyperlocomotor activity of Coloboma mutant mice (ADHD model); conditions: vs vehicle
Excerpt: The mice used in the current study are the offspring of breeding pairs (C3H/HeSnj-Cm) originally purchased from Jackson Laboratory, Bar Harbor, Me. Of the 48 mice tested, 22 were male and 26 were female, at age between 12–20 weeks old. These animals were weaned at 21 days age and were housed in 2 to 4 littermates per cage in our animal facility where standard animal husbandry was maintained. The colony room was kept under 12-hour light/12-hour dark cycles with the lights on at 7:00 a.m. Temperature was maintained between 20 and 23° C. with a relative humidity maintained between 30% and 70%. Animals received food chow and water provided ad libitum.
All compounds were dissolved in sterile injectable water, which served as the vehicle control. All solutions were prepared on the day of the experiments. Compound A as well as its vehicle (water) was given to animals orally (PO) in a volume of 10 ml/kg body weight; the reference compound was given to animals intraperitoneally (IP). […]
The study was conducted over two consecutive days with animals tested between 10:00 a.m. and 5:00 p.m. on each day. […] The results were recorded automatically and processed by microcomputer.
The open field activity monitor system (Med Associates, Inc.) measured general motor activity. […]
All data were analyzed by comparing the groups treated with the test substance to the vehicle control or reference treated groups. […]

[5] = test system: 129 svev mice (tail suspension), DBA/2J mice (forced swim); assay: Tail suspension and forced swim test; conditions: PO; tail suspension: once daily for 3 days
Excerpt: as §1
as §3, with “Thirty minutes pretreatment time was used in all tests except for SIH in which case compounds were given to the animals one hr before the test.” left out

[6] = reference buspirone 3, 10 and 20 mg/kg PO
[7] = reference buspirone 20 mg/kg IP
[8] = reference buspirone 20 mg/kg IP, listed as buspirone

SMILES: O=C1CC2(CCCC2)CC(=O)N1CCCCN1CCN(c2ncccn2)CC1 [Buspirone, reference compound]
- Closed Arm Entries ([1]; 20 mg/kg PO): significantly decreased
- Total Entries ([1]; 20 mg/kg PO): significant decrease
- Closed Arm Entries ([1]; 20 mg/kg PO, listed as BUS): decrease (BUS, 20)
- Total Entries ([1]; 20 mg/kg PO, listed as BUS): decrease (BUS, 20)
- anxiolytic-like effect in the EPM [1, 6]: failed to produce a significant anxiolytic-like effect
- Open Arm Time [1, 6]: no effect
- Basal Rectal Temperature [2, 7]: decrease
- Temperature Change (stress-induced hyperthermia) [2, 7]: decrease
- Basal Rectal Temperature [2, 8]: significantly decreased
- Temperature Change (stress-induced hyperthermia) [2, 8]: significantly decreased
- Frequency of Zone Crosses ([3]; reference buspirone PO): no change
- Percent Distance in Center ([3]; reference buspirone PO): no change
- Percent Time in Center ([3]; reference buspirone PO): no change
- Total Distance (Horizontal) ([3]; reference buspirone PO): no change
- Vertical Activity (Rearing) ([3]; reference buspirone PO): decreased the number of rears; also recorded: decrease

SMILES: CC(=O)Nc1cccc(N2CCN(CCCCNS(=O)(=O)CC3CCCCC3)CC2)c1 [Compound A, N-{3-[4-(4-Cyclohexylmethanesulfonylamino-butyl)-piperazin-1-yl]-phenyl}-acetamide HCl]
- Closed Arm Entries ([1]; 3 mg/kg PO): no change
- Total Entries ([1]; 3 mg/kg PO): no change
- Open Arm Time ([1]; 3 mg/kg PO, HCl): significant anxiolytic-like effect; also recorded: increase
- Proportion Open Arm Entries ([1]; 3 mg/kg PO, HCl): significant anxiolytic-like effect; also recorded: increase
- Closed Arm Entries ([1]; 10 mg/kg PO): no change
- Total Entries ([1]; 10 mg/kg PO): no change
- Open Arm Time ([1]; 10 mg/kg PO, HCl): did not reach statistical significance; also recorded: no change
- Proportion Open Arm Entries ([1]; 10 mg/kg PO, HCl): did not reach statistical significance; also recorded: no change
- Closed Arm Entries ([1]; 20 mg/kg PO): no change
- Total Entries ([1]; 20 mg/kg PO): no change
- Open Arm Time ([1]; 20 mg/kg PO, HCl): did not reach statistical significance; also recorded: no change
- Proportion Open Arm Entries ([1]; 20 mg/kg PO, HCl): did not reach statistical significance; also recorded: no change
- Basal Rectal Temperature ([2]; 1 mg/kg PO, HCl): did not show significant effects; also recorded: no change
- Temperature Change (stress-induced hyperthermia) ([2]; 1 mg/kg PO, HCl): did not show significant effects; also recorded: no change
- Basal Rectal Temperature ([2]; 3 mg/kg PO, HCl): did not show significant effects; also recorded: no change
- Temperature Change (stress-induced hyperthermia) ([2]; 3 mg/kg PO, HCl): did not show significant effects; also recorded: no change
- Basal Rectal Temperature ([2]; 20 mg/kg PO, HCl): significant decrease
- Temperature Change (stress-induced hyperthermia) ([2]; 20 mg/kg PO, HCl): significant decrease
- Frequency of Zone Crosses ([3]; 1 mg/kg PO): No change
- Percent Distance in Center ([3]; 1 mg/kg PO): No change
- Percent Time in Center ([3]; 1 mg/kg PO): No change
- Total Distance (Horizontal) ([3]; 1 mg/kg PO): No change
- Vertical Activity (Rearing) ([3]; 1 mg/kg PO): No change
- Frequency of Zone Crosses ([3]; 3 mg/kg PO): no change
- Percent Distance in Center ([3]; 3 mg/kg PO): no change
- Percent Time in Center ([3]; 3 mg/kg PO): no change
- Total Distance (Horizontal) ([3]; 3 mg/kg PO): no change
- Vertical Activity (Rearing) ([3]; 3 mg/kg PO): no change
- Frequency of Zone Crosses ([3]; 20 mg/kg PO): no change
- Percent Distance in Center ([3]; 20 mg/kg PO): no change
- Percent Time in Center ([3]; 20 mg/kg PO): no change
- Total Distance (Horizontal) ([3]; 20 mg/kg PO): no change
- Vertical Activity (Rearing) ([3]; 20 mg/kg PO): no change
- hyperlocomotor activity (Distance Traveled) ([4]; doses of 1 and 20 mg/kg PO, 30 min pretreatment): decreased the hyperlocomotor activity
- antidepressive properties [5]: did not appear to have antidepressive properties

SMILES: C[C@H](N)Cc1ccccc1 [d-Amphetamine, reference compound]
- locomotor activity (Distance Traveled) ([4]; 4 mg/kg IP, 15 min before the test): significantly decreased

— patent US7153858B2, “Arylpiperazinyl compounds” (Epix Delaware, Inc., priority 2003, dated 2006)
